According to patent US10874743B2, “IRAK degraders and uses thereof” (Kymera Therapeutics, Inc., priority 2017, dated 2020):

Target: T1, IRAK4 (Homo sapiens, UniProt Q9NWZ3)
T1 sequence (Q9NWZ3 1-460): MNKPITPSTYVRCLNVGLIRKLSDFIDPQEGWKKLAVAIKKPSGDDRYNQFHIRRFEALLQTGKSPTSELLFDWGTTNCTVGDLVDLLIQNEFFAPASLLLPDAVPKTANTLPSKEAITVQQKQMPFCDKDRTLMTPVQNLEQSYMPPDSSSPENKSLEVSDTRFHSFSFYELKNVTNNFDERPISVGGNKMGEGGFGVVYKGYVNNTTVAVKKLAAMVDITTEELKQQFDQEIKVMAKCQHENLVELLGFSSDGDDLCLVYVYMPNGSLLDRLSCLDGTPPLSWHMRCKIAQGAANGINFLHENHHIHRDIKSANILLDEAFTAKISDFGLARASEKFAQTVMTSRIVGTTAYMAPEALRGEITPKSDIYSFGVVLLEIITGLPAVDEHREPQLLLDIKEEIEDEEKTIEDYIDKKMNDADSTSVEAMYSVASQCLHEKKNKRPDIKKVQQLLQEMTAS
Assay: OCI-LY-10 degradation assay (western blot, % IRAK4 degraded after 4 hours)
Assay type: cell-based
Parameters: endogenous in cells; host or cells: OCI-LY10
Conditions: OCI-LY10 cells, 4 hours; for OCI-LY10 % IRAK4 Degradation (0.01 uM): 0.01 uM compound; for OCI-LY10 % IRAK4 Degradation (0.1 uM): 0.1 uM compound; for OCI-LY10 % IRAK4 Degradation (1 uM): 1 uM compound
How it was run: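 OCI-LY10 cells (RPMI-1640, 20% FBS, 55 μM 2-ME) treated with compound at 0.003-10 μM final for 4 h at 37° C, then lysed in RIPA buffer. IRAK4 level read by fluorescent western blot (20-25 μg protein) and binned as % degraded: A >50%, B >20-50%, C <20%.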

## NC(=O)c1nn(-c2ccc(CNCCCc3cccc4c3C(=O)N(C3CCC(=O)NC3=O)C4=O)cc2)cc1NC(=O)c1coc(-c2ccncc2)n1 (stereo not drawn) [I-358]
  OCI-LY10 % IRAK4 Degradation (0.01 uM): C (<20% degradation)
  OCI-LY10 % IRAK4 Degradation (0.1 uM): C (<20% degradation)
  OCI-LY10 % IRAK4 Degradation (1 uM): C (<20% degradation)

## O=C1CCC(N2C(=O)c3cccc(CNCc4ccc(-n5cc(NC(=O)c6coc(-c7ccncc7)n6)c(C(F)F)n5)cc4)c3C2=O)C(=O)N1 (stereo not drawn) [I-359]
  OCI-LY10 % IRAK4 Degradation (0.01 uM): C (<20% degradation)
  OCI-LY10 % IRAK4 Degradation (0.1 uM): C (<20% degradation)
  OCI-LY10 % IRAK4 Degradation (1 uM): C (<20% degradation)

## O=C1CCC(N2C(=O)c3cccc(CCCNCc4ccc(-n5cc(NC(=O)c6coc(-c7ccnc(NCC(F)(F)F)c7)n6)c(C(F)F)n5)cc4)c3C2=O)C(=O)N1 (stereo not drawn) [I-361]
  OCI-LY10 % IRAK4 Degradation (0.01 uM): C (<20% degradation)
  OCI-LY10 % IRAK4 Degradation (0.1 uM): C (<20% degradation)
  OCI-LY10 % IRAK4 Degradation (1 uM): C (<20% degradation)

## CN(CCOCCCc1cccc2c1C(=O)N(C1CCC(=O)NC1=O)C2=O)Cc1ccc(-n2cc(NC(=O)c3coc(-c4ccnc(NCC5CC5)c4)n3)c(C(F)F)n2)cc1 (stereo not drawn) [I-362]
  OCI-LY10 % IRAK4 Degradation (0.01 uM): C (<20% degradation)
  OCI-LY10 % IRAK4 Degradation (0.1 uM): B (>20-50% degradation)
  OCI-LY10 % IRAK4 Degradation (1 uM): A (>50% degradation)

## CN(CCOCCCc1cccc2c1C(=O)N(C1CCC(=O)NC1=O)C2=O)Cc1ccc(-n2cc(NC(=O)c3coc(-c4ccncc4)n3)c(C(F)F)n2)cc1 (stereo not drawn) [I-363]
  OCI-LY10 % IRAK4 Degradation (0.01 uM): C (<20% degradation)
  OCI-LY10 % IRAK4 Degradation (0.1 uM): C (<20% degradation)
  OCI-LY10 % IRAK4 Degradation (1 uM): C (<20% degradation)

## CN(CCNCCCc1cccc2c1C(=O)N(C1CCC(=O)NC1=O)C2=O)C(=O)c1ccc(-n2cc(NC(=O)c3coc(-c4ccncc4)n3)c(C(F)F)n2)cc1 (stereo not drawn) [I-364]
  OCI-LY10 % IRAK4 Degradation (0.01 uM): C (<20% degradation)
  OCI-LY10 % IRAK4 Degradation (0.1 uM): C (<20% degradation)
  OCI-LY10 % IRAK4 Degradation (1 uM): C (<20% degradation)

## CN(CCCc1cccc2c1C(=O)N(C1CCC(=O)NC1=O)C2=O)Cc1ccc(-n2cc(NC(=O)c3coc(-c4ccncc4)n3)c(C(F)F)n2)cc1 (stereo not drawn) [I-365]
  OCI-LY10 % IRAK4 Degradation (0.01 uM): C (<20% degradation)
  OCI-LY10 % IRAK4 Degradation (0.1 uM): C (<20% degradation)
  OCI-LY10 % IRAK4 Degradation (1 uM): C (<20% degradation)

## O=C1CCC(N2C(=O)c3cccc(CCCOCCNCc4ccc(-n5cc(NC(=O)c6coc(-c7ccnc(NCC8CC8)c7)n6)c(C(F)F)n5)cc4)c3C2=O)C(=O)N1 (stereo not drawn) [I-367]
  OCI-LY10 % IRAK4 Degradation (0.01 uM): B (>20-50% degradation)
  OCI-LY10 % IRAK4 Degradation (0.1 uM): B (>20-50% degradation)
  OCI-LY10 % IRAK4 Degradation (1 uM): A (>50% degradation)

## CN(CCCc1ccc2c(c1)C(=O)N(C1CCC(=O)NC1=O)C2=O)Cc1ccc(-n2cc(NC(=O)c3coc(-c4ccnc(NCC5CC5)c4)n3)c(C(F)F)n2)cc1 (stereo not drawn) [I-369]
  OCI-LY10 % IRAK4 Degradation (0.01 uM): B (>20-50% degradation)
  OCI-LY10 % IRAK4 Degradation (0.1 uM): B (>20-50% degradation)
  OCI-LY10 % IRAK4 Degradation (1 uM): B (>20-50% degradation)

## CN(CCCc1ccc2c(c1)C(=O)N(C1CCC(=O)NC1=O)C2=O)Cc1ccc(-n2cc(NC(=O)c3coc(-c4ccncc4)n3)c(C(N)=O)n2)cc1 (stereo not drawn) [I-370]
  OCI-LY10 % IRAK4 Degradation (0.01 uM): C (<20% degradation)
  OCI-LY10 % IRAK4 Degradation (0.1 uM): B (>20-50% degradation)
  OCI-LY10 % IRAK4 Degradation (1 uM): B (>20-50% degradation)

## NC(=O)c1nn(-c2ccc(CNCCCc3ccc4c(c3)C(=O)N(C3CCC(=O)NC3=O)C4=O)cc2)cc1NC(=O)c1coc(-c2ccncc2)n1 (stereo not drawn) [I-372]
  OCI-LY10 % IRAK4 Degradation (0.01 uM): C (<20% degradation)
  OCI-LY10 % IRAK4 Degradation (0.1 uM): C (<20% degradation)
  OCI-LY10 % IRAK4 Degradation (1 uM): C (<20% degradation)

## CN(CCCc1ccc2c(c1)C(=O)N(C1CCC(=O)NC1=O)C2=O)Cc1ccc(-n2cc(NC(=O)c3coc(-c4ccnc(NCC(F)(F)F)c4)n3)c(C(F)F)n2)cc1 (stereo not drawn) [I-374]
  OCI-LY10 % IRAK4 Degradation (0.01 uM): C (<20% degradation)
  OCI-LY10 % IRAK4 Degradation (0.1 uM): B (>20-50% degradation)
  OCI-LY10 % IRAK4 Degradation (1 uM): B (>20-50% degradation)

## O=C1CCC(N2C(=O)c3ccc(CCCNCc4ccc(-n5cc(NC(=O)c6coc(-c7ccnc(NCC(F)(F)F)c7)n6)c(C(F)F)n5)cc4)cc3C2=O)C(=O)N1 (stereo not drawn) [I-375]
  OCI-LY10 % IRAK4 Degradation (0.01 uM): B (>20-50% degradation)
  OCI-LY10 % IRAK4 Degradation (0.1 uM): B (>20-50% degradation)
  OCI-LY10 % IRAK4 Degradation (1 uM): B (>20-50% degradation)

## CN(CCOCCCc1ccc2c(c1)C(=O)N(C1CCC(=O)NC1=O)C2=O)Cc1ccc(-n2cc(NC(=O)c3coc(-c4ccnc(NCC5CC5)c4)n3)c(C(F)F)n2)cc1 (stereo not drawn) [I-376]
  OCI-LY10 % IRAK4 Degradation (0.01 uM): B (>20-50% degradation)
  OCI-LY10 % IRAK4 Degradation (0.1 uM): A (>50% degradation)
  OCI-LY10 % IRAK4 Degradation (1 uM): A (>50% degradation)

## CN(CCOCCCc1ccc2c(c1)C(=O)N(C1CCC(=O)NC1=O)C2=O)Cc1ccc(-n2cc(NC(=O)c3coc(-c4ccncc4)n3)c(C(F)F)n2)cc1 (stereo not drawn) [I-377]
  OCI-LY10 % IRAK4 Degradation (0.01 uM): C (<20% degradation)
  OCI-LY10 % IRAK4 Degradation (0.1 uM): C (<20% degradation)
  OCI-LY10 % IRAK4 Degradation (1 uM): B (>20-50% degradation)

## CN(CCNCCCc1ccc2c(c1)C(=O)N(C1CCC(=O)NC1=O)C2=O)C(=O)c1ccc(-n2cc(NC(=O)c3coc(-c4ccncc4)n3)c(C(F)F)n2)cc1 (stereo not drawn) [I-378]
  OCI-LY10 % IRAK4 Degradation (0.01 uM): C (<20% degradation)
  OCI-LY10 % IRAK4 Degradation (0.1 uM): C (<20% degradation)
  OCI-LY10 % IRAK4 Degradation (1 uM): A (>50% degradation)

## O=C1CCC(N2C(=O)c3ccc(CCCNCc4ccc(-n5cc(NC(=O)c6coc(-c7ccncc7)n6)c(C(F)F)n5)cc4)cc3C2=O)C(=O)N1 (stereo not drawn) [I-380]
  OCI-LY10 % IRAK4 Degradation (0.01 uM): C (<20% degradation)
  OCI-LY10 % IRAK4 Degradation (0.1 uM): C (<20% degradation)
  OCI-LY10 % IRAK4 Degradation (1 uM): C (<20% degradation)

## O=C1CCC(N2C(=O)c3ccc(CCCOCCNCc4ccc(-n5cc(NC(=O)c6coc(-c7ccncc7)n6)c(C(F)F)n5)cc4)cc3C2=O)C(=O)N1 (stereo not drawn) [I-382]
  OCI-LY10 % IRAK4 Degradation (0.01 uM): C (<20% degradation)
  OCI-LY10 % IRAK4 Degradation (0.1 uM): C (<20% degradation)
  OCI-LY10 % IRAK4 Degradation (1 uM): B (>20-50% degradation)

## O=C1CCC(N2C(=O)c3cccc(OCc4cnnn4CCOCCOCCNCn4cc(NC(=O)c5coc(-c6ccnc(NCC7CC7)c6)n5)c(C(F)F)n4)c3C2=O)C(=O)N1 (stereo not drawn) [I-383]
  OCI-LY10 % IRAK4 Degradation (0.01 uM): C (<20% degradation)
  OCI-LY10 % IRAK4 Degradation (0.1 uM): C (<20% degradation)
  OCI-LY10 % IRAK4 Degradation (1 uM): A (>50% degradation)

## O=C1CCC(N2C(=O)c3cccc(NC4CCN(CCOCCNCc5ccc(-n6cc(NC(=O)c7coc(-c8ccnc(NCC9CC9)c8)n7)c(C(F)F)n6)cc5)CC4)c3C2=O)C(=O)N1 (stereo not drawn) [I-385]
  OCI-LY10 % IRAK4 Degradation (0.01 uM): C (<20% degradation)
  OCI-LY10 % IRAK4 Degradation (0.1 uM): B (>20-50% degradation)
  OCI-LY10 % IRAK4 Degradation (1 uM): B (>20-50% degradation)

## NC(=O)c1nn(-c2ccc(C(=O)NCCOCCOCCNc3cccc4c3C(=O)N(C3CCC(=O)NC3=O)C4=O)cc2)cc1NC(=O)c1coc(-c2ccnc(C3CC3)c2)n1 (stereo not drawn) [I-424]
  OCI-LY10 % IRAK4 Degradation (0.01 uM): B (>20-50% degradation)
  OCI-LY10 % IRAK4 Degradation (0.1 uM): B (>20-50% degradation)
  OCI-LY10 % IRAK4 Degradation (1 uM): B (>20-50% degradation)

## CC[C@@H]1[C@H](F)C(=O)N[C@@H]1COc1ncc(C#Cc2ccc(OCCOCCOCCOCCNc3cccc4c3C(=O)N(C3CCC(=O)NC3=O)C4=O)cc2)c2cc(C(N)=O)c(OC)cc12 (stereo partly drawn) [I-425, 4-[2-[4-[2-[2-[2-[2-[[2-(2,6-Dioxo-3-piperidyl)-1,3-dioxo-isoindolin-4-yl]amino]ethoxy]ethoxy]ethoxy]ethoxy]phenyl]ethynyl]-1-[[(2S,3S,4S)-3-ethyl-4-fluoro-5-oxo-pyrrolidin-2-yl]methoxy]-7-methoxy-isoquinoline-6-carboxamide]
  OCI-LY10 % IRAK4 Degradation (0.01 uM): B (>20-50% degradation)
  OCI-LY10 % IRAK4 Degradation (0.1 uM): A (>50% degradation)
  OCI-LY10 % IRAK4 Degradation (1 uM): A (>50% degradation)

## O=C1CCC(N2C(=O)c3cccc(NCCOCCOCCN4Cc5ccc(-n6cc(NC(=O)c7coc(-c8ccnc(NCC9CC9)c8)n7)c(C(F)(F)F)n6)cc5C4)c3C2=O)C(=O)N1 (stereo not drawn) [I-426, 2-[2-(Cyclopropylmethylamino)-4-pyridyl]-N-[1-[2-[2-[2-[2-[[2-(2,6-dioxo-3-piperidyl)-1,3-dioxo-isoindolin-4-yl]amino]ethoxy]ethoxy]ethyl]isoindolin-5-yl]-3-(trifluoromethyl)pyrazol-4-yl]oxazole-4-carboxamide]
  OCI-LY10 % IRAK4 Degradation (0.01 uM): C (<20% degradation)
  OCI-LY10 % IRAK4 Degradation (0.1 uM): C (<20% degradation)
  OCI-LY10 % IRAK4 Degradation (1 uM): C (<20% degradation)

## NC(=O)c1nn(CC#CC#CCOCCOCCNc2cccc3c2C(=O)N(C2CCC(=O)NC2=O)C3=O)cc1NC(=O)c1coc(-c2ccnc(NCC3CC3)c2)n1 (stereo not drawn) [I-434, N-[3-carbamoyl-1-[6-[2-[2-[[2-(2,6-dioxo-3-piperidyl)-1,3-dioxo-isoindolin-4-yl]amino]ethoxy]ethoxy]hexa-2,4-diynyl]pyrazol-4-yl]-2-[2-(cyclopropylmethylamino)-4-pyridyl]oxazole-4-carboxamide]
  OCI-LY10 % IRAK4 Degradation (0.01 uM): C (<20% degradation)
  OCI-LY10 % IRAK4 Degradation (0.1 uM): C (<20% degradation)
  OCI-LY10 % IRAK4 Degradation (1 uM): C (<20% degradation)
